Measurements as given in the supplement of paper PMC11061612.

What was measured:
Assay in all cases: combination Emax (second highest fraction inhibited in the dose matrix, 72 h); higher = more inhibition; extreme values may be limits of the assay
[1] = system: HCC1419 (Breast Carcinoma)
Procedure, shortened: (§1)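 After 24 hours at 37°C and 5% CO2 in 1536-well plates, cells in DMEM/F12 or RPMI plus 10% FBS received two-drug dose matrices for 72 hours. Viability came from CellTiter-Glo 2.0 luminescence and was scaled as inhibition, anchored at 0 by vehicle wells and at 1 by blank wells. Combination Emax is taken as the second-highest inhibition in the matrix, and Bliss excess as the observed combination effect less EA + EB − EA·EB, with EA and EB the single-agent effects.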

[2] = system: NCCIT (Other Solid Carcinomas)
Procedure, shortened: as §1

[3] = system: ST486 (Burkitt's Lymphoma)
Procedure, shortened: as §1

[4] = system: T-T (Esophageal Squamous Cell Carcinoma)
Procedure, shortened: as §1

RD (Rhabdomyosarcoma) = system: RD (Rhabdomyosarcoma)
Procedure, shortened: as §1

[5] = system: JHH-4 (Hepatocellular Carcinoma)
Procedure, shortened: as §1

[6] = system: KY821 (Acute Myeloid Leukemia)
Procedure, shortened: as §1

[7] = system: NCI-H520 (Squamous Cell Lung Carcinoma)
Procedure, shortened: as §1

[8] = system: DAN-G (Pancreatic Carcinoma)
Procedure, shortened: as §1

[9] = system: SU-DHL-5 (B-Cell Non-Hodgkin's Lymphoma)
Procedure, shortened: as §1

[10] = system: HCC1187 (Breast Carcinoma)
Procedure, shortened: as §1

[11] = system: CW-2 (Colorectal Carcinoma)
Procedure, shortened: as §1

[12] = system: VMRC-RCZ (Kidney Carcinoma)
Procedure, shortened: as §1

M059J (Glioblastoma) = system: M059J (Glioblastoma)
Procedure, shortened: as §1

[13] = system: DMS-114 (Small Cell Lung Carcinoma)
Procedure, shortened: as §1

[14] = system: H9 (T-Cell Non-Hodgkin's Lymphoma)
Procedure, shortened: as §1

[15] = system: SNU-398 (Hepatocellular Carcinoma)
Procedure, shortened: as §1

[16] = system: NCI-H526 (Small Cell Lung Carcinoma)
Procedure, shortened: as §1

[17] = system: CHSA8926 (Chondrosarcoma)
Procedure, shortened: as §1

[18] = system: SK-GT-4 (Esophageal Adenocarcinoma)
Procedure, shortened: as §1

Cc1c2c(nn1C)CSCc1cc(n(C)n1)CSc1cc(c3ccccc3c1)OCCCc1c(C(=O)O)n(C)c3c-2c(Cl)ccc13 [AZD5991] + Cc1cc2ncnn2cc1Nc1ncc2c(n1)n(C1CCOCC1)c(=O)n2C [AZD7648] (first compound max 1 µM, 7x7, partner max 10 µM)
combination Emax [1]: 0.501 | combination Emax [2]: 0.619 | combination Emax [3]: 0.841 | combination Emax [4]: 0.926 | combination Emax (RD (Rhabdomyosarcoma)): 0.521 | combination Emax [5]: 0.262 | combination Emax [6]: 1 | combination Emax [7]: 0.567 | combination Emax [8]: 0.483 | combination Emax [9]: 1 | combination Emax [10]: 1 | combination Emax [11]: 0.223 | combination Emax [12]: 0.191 | combination Emax (M059J (Glioblastoma)): 0.468 | combination Emax [13]: 0.692 | combination Emax [14]: 0.722 | combination Emax [15]: 1 | combination Emax [16]: 0.323 | combination Emax [17]: 0.515 | combination Emax [18]: 0.327

CN(CCO)CC[C@H](CSc1ccccc1)Nc1ccc(S(=O)(=O)NC(=O)c2ccc(N3CCC([C@@H](O)c4ccccc4-c4ccc(Cl)cc4)CC3)cc2)cc1S(=O)(=O)C(F)(F)F [AZD4320] + C1CN(CCC1(C(=O)N[C@@H](CCO)C2=CC=C(C=C2)Cl)N)C3=NC=NC4=C3C=CN4 [Capivasertib] (first compound max 1 µM, 7x7, partner max 3 µM)
combination Emax [1]: 0.879 | combination Emax [2]: 0.378 | combination Emax [3]: 0.881 | combination Emax [4]: 0.199 | combination Emax (RD (Rhabdomyosarcoma)): 0.575 | combination Emax [5]: 0.0846 | combination Emax [6]: 1 | combination Emax [7]: 0.593 | combination Emax [8]: 0.507 | combination Emax [9]: 0.956 | combination Emax [10]: 0.146 | combination Emax [11]: 0.158 | combination Emax [12]: 0.37 | combination Emax (M059J (Glioblastoma)): 0.486 | combination Emax [13]: 0.229 | combination Emax [14]: 0.986 | combination Emax [15]: 0.0802 | combination Emax [16]: 0.929 | combination Emax [17]: 0.579 | combination Emax [18]: 0.443

CC1(C)CCC(CN2CCN(c3ccc(C(=O)NS(=O)(=O)c4ccc(NCC5CCOCC5)c([N+](=O)[O-])c4)c(Oc4cnc5[nH]ccc5c4)c3)CC2)=C(c2ccc(Cl)cc2)C1 [Venetoclax] + C[C@@H]1COCCN1C2=NC(=NC(=C2)C3(CC3)[S@](=N)(=O)C)C4=C5C=CNC5=NC=C4 [AZD6738] (first compound max 1 µM, 7x7, partner max 10 µM)
combination Emax [1]: 0.343 | combination Emax [2]: 0.607 | combination Emax [3]: 0.861 | combination Emax [4]: 0.485 | combination Emax (RD (Rhabdomyosarcoma)): 0.372 | combination Emax [5]: 0.254 | combination Emax [6]: 1 | combination Emax [7]: 0.654 | combination Emax [8]: 0.719 | combination Emax [9]: 1 | combination Emax [10]: 0.501 | combination Emax [11]: 0.403 | combination Emax [12]: 0.434 | combination Emax (M059J (Glioblastoma)): 0.526 | combination Emax [13]: 0.564 | combination Emax [14]: 1 | combination Emax [15]: 0.673 | combination Emax [16]: 0.889 | combination Emax [17]: 0.469 | combination Emax [18]: 0.589

Cn1cnc2c(F)c(Nc3ccc(Br)cc3Cl)c(C(=O)NOCCO)cc21 [Selumetinib] + C=CCn1c(=O)c2cnc(Nc3ccc(N4CCN(C)CC4)cc3)nc2n1-c1cccc(C(C)(C)O)n1 [AZD1775] (first compound max 10 µM, partner max 1 µM)
combination Emax [1]: 0.0435 | combination Emax [2]: 0.773 | combination Emax [3]: 0.978 | combination Emax [4]: 0.301 | combination Emax (RD (Rhabdomyosarcoma)): 0.669 | combination Emax [5]: 0.728 | combination Emax [6]: 1 | combination Emax [7]: 0.295 | combination Emax [8]: 0.811 | combination Emax [9]: 0.984 | combination Emax [10]: 0.682 | combination Emax [11]: 0.464 | combination Emax [12]: 0.258 | combination Emax (M059J (Glioblastoma)): 0.262 | combination Emax [13]: 0.192 | combination Emax [14]: 1 | combination Emax [15]: 0.784 | combination Emax [16]: 0.69 | combination Emax [17]: 0.556 | combination Emax [18]: 0.528

CC1(C)CCC(CN2CCN(c3ccc(C(=O)NS(=O)(=O)c4ccc(NCC5CCOCC5)c([N+](=O)[O-])c4)c(Oc4cnc5[nH]ccc5c4)c3)CC2)=C(c2ccc(Cl)cc2)C1 [Venetoclax] + C=CCn1c(=O)c2cnc(Nc3ccc(N4CCN(C)CC4)cc3)nc2n1-c1cccc(C(C)(C)O)n1 [AZD1775] (first compound max 1 µM, partner max 1 µM)
combination Emax [1]: 0.254 | combination Emax [2]: 0.907 | combination Emax [3]: 0.978 | combination Emax [4]: 0.711 | combination Emax (RD (Rhabdomyosarcoma)): 0.546 | combination Emax [5]: 0.343 | combination Emax [6]: 1 | combination Emax [7]: 0.647 | combination Emax [8]: 0.747 | combination Emax [9]: 0.986 | combination Emax [10]: 0.442 | combination Emax [11]: 0.311 | combination Emax [12]: 0.467 | combination Emax (M059J (Glioblastoma)): 0.713 | combination Emax [13]: 0.437 | combination Emax [14]: 0.966 | combination Emax [15]: 0.711 | combination Emax [16]: 0.835 | combination Emax [17]: 0.57 | combination Emax [18]: 0.715

Cn1cnc2c(F)c(Nc3ccc(Br)cc3Cl)c(C(=O)NOCCO)cc21 [Selumetinib] + C[C@@H]1COCCN1C2=NC(=NC(=C2)C3(CC3)[S@](=N)(=O)C)C4=C5C=CNC5=NC=C4 [AZD6738] (first compound max 10 µM, 7x7, partner max 10 µM)
combination Emax [1]: 0.174 | combination Emax [2]: 0.649 | combination Emax [3]: 0.877 | combination Emax [4]: 0.292 | combination Emax (RD (Rhabdomyosarcoma)): 0.522 | combination Emax [5]: 0.752 | combination Emax [6]: 0.944 | combination Emax [7]: 0.406 | combination Emax [8]: 0.675 | combination Emax [9]: 1 | combination Emax [10]: 0.636 | combination Emax [11]: 0.501 | combination Emax [12]: 0.217 | combination Emax (M059J (Glioblastoma)): 0.291 | combination Emax [13]: 0.34 | combination Emax [14]: 1 | combination Emax [15]: 0.742 | combination Emax [16]: 0.427 | combination Emax [17]: 0.404 | combination Emax [18]: 0.616
